The results in this text go back to patent US9327005B1, “Compositions and methods for improved energy metabolism” (VDF FutureCeuticals, Inc., priority 2012, dated 2016).

In this assay the test system is freshly isolated human peripheral blood cells. As to the kind of experiment: Seahorse oxygen consumption rate (OCR). It is filed as cell-based. The note with it: average.

Each structure is given as a SMILES string.

Description: Testing was performed using Seahorse technology in order to measure real-time changes in oxygen consumption by freshly isolated human peripheral blood cells.
All results were generated on freshly isolated blood cells from different and randomly selected healthy and fasted donors. […] These two values were used as positive and negative controls, respectively, in order to ensure quality of test, viability and metabolic functionality of fresh human blood cells. Oligomycin inhibits oxygen metabolism. In presence of this substance, cells generate ATP/energy mainly via glycolysis. […] To ensure quality of human blood cells, blood was collected directly into Cell Preparation Tube with Sodium Citrate, Becton Dickinson Inc. Peripheral blood cells were isolated during 45 minutes following Protocol provided by Becton Dickinson. Blood cells were cultivated during each experiment in Seahorse media supplemented with 5 mM of glucose. Glucose concentration was adjusted from 11 mM to 5 mM to avoid testing of samples under hyperglycemic conditions (typically glucose at concentration lower than 95 mg/dl).
Cells were isolated from healthy fasted subject, and treated with apple extract at indicated dose. […] Rate 7, 8 and 14 represent time-points: 4, 8 and 32 minutes after the treatment, respectively.

In the case of `N#CC(C#N)=NNc1ccc(OC(F)(F)F)cc1` [FCCP], the “increase in OCR” value (positive control) is recorded as 397%.

In the case of `CC[C@H]1/C=C/C=C/C[C@@H](C)[C@H](O)[C@@](C)(O)C(=O)[C@@H](C)[C@H](O)[C@@H](C)C(=O)[C@@H](C)[C@H](O)[C@@H](C)/C=C/C(=O)O[C@@H]2[C@H](C)[C@H](CC1)O[C@]1(CC[C@H](C)[C@H](C[C@@H](C)O)O1)[C@H]2C` [oligomycin], for the setting “negative control”, the “inhibition of OCR” value came out at 86%.
